Experimental findings from paper PMC2642729, “Interpain A, a Cysteine Proteinase from Prevotella intermedia, Inhibits Complement by Degrading Complement Factor C3” (PLoS Pathogens, 2009) are described below.

The target of the assay is T1, interpain A (InpA) (Prevotella intermedia, UniProt A9J7N5).
T1 construct: gene pin0048; full precursor 868 residues with 44-residue signal peptide; mature form 28 kDa (Val112-Pro359)
In words: active-site titration; residual activity by AMC release from Boc-Val-Leu-Lys-AMC. The format is biochemical. As to conditions: titrated to total inactivation; pH 7.5, 5 mM EDTA, 2 mM DTT; 37 min preincubation at room temperature; covalent active-site cysteine inhibitor (mode known, not given).

T1 sequence (A9J7N5 entry or part of it): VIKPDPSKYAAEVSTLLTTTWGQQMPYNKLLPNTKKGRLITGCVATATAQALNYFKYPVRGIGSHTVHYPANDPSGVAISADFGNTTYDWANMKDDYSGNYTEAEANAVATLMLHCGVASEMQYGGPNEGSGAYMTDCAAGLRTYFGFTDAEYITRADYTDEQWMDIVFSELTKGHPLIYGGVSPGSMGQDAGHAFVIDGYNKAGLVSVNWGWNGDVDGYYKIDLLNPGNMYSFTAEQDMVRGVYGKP

For `CC(C)C[C@H](NC(=O)[C@H]1O[C@@H]1C(=O)O)C(=O)NCCCCNC(=N)N` [E64], the “active-site titration; residual activity by AMC release from Boc-Val-Leu-Lys-AMC” value is “determined by active site titration using inhibitor E64 (Sigma)”.
